According to patent US20130196986A1 (priority 2010, published 2013):

Target: T1, P2X7 receptor (Homo sapiens, UniProt Q99572)
T1 construct: stably expressing the full length P2X7 receptor; expressed in transfected cells
T1 sequence (Q99572 1-595): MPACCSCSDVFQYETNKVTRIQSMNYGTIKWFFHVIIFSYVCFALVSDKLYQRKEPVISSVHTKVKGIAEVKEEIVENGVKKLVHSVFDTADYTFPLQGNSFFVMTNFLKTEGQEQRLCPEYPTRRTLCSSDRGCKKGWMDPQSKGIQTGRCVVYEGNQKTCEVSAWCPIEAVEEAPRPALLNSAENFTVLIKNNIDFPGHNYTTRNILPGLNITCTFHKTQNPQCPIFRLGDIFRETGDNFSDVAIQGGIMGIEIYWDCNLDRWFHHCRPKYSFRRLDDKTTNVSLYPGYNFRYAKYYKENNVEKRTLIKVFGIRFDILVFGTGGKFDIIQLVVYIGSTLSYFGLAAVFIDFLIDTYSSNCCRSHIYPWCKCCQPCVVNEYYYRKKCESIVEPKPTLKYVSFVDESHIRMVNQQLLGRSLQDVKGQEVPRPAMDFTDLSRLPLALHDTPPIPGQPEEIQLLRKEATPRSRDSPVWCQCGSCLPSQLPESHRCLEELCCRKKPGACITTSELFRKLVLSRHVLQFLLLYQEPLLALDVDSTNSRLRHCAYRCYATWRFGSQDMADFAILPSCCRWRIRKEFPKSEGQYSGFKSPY
Assay: Ca++ flux assay (FLIPR) in P2X7-HEK-293 cell line stably expressing the full length P2X7 receptor, Bz-ATP activation
Type: cell-based
Settings: P2X7-HEK-293 cells; agonist Bz-ATP; fluorescence as total area over 90 seconds; read-out: P2X7 Ca Flux hu IC50
Description: The ability of Triazolopyrazinone Compounds to inhibit P2X7 function can be determined in Ca^++ flux assay using a P2X7-HEK-293 cell line stably expressing the full length P2X7 receptor. The assay protocol is as described in Cheewatrakoolpong et al., Biochem. Biophys. Res. Commun. 332:17-27 (2005) with minor modification, and is as summarized hereinafter. Briefly, cells were plated in poly-D-lysine-coated wells, and incubated at 37° C. for 24 hours. Cells were then incubated for 1 hour with a loading buffer which contains a dye sensitive to changes in Ca^++ concentration (lx Calcium Plus no wash dye from Molecular Devices, Sunnyvale, Calif.). The test compounds were added to the wells in the dye loading step. Plates containing the wells were transferred to a Fluorometric Imaging Plate Reader (Molecular Devices, Sunnyvale, Calif.). The cells were activated by the addition of the P2X7 receptor agonist 2′(3) —O-(4-benzoylbenzoyl)adenosine 5′-triphosphate (Bz-ATP from Sigma-Aldrich, St. Louis, Mo.), and the fluorescence was monitored for 90 seconds. The fluorescent signal was determined as the total area over the 90 second run time. Using this protocol, representative Triazolopyrazinone Compounds, compounds 1471 were tested. Tables 3 to 6 show the concentration at which 50% of the maximum response in the Ca^++ was inhibited (IC50) for each of the test compounds.

Row | IC50 [nM] | Compound
1 | 12.4 | Cc1c(-n2ccn3c(S(=O)(=O)Cc4ccsc4)nnc3c2=O)cccc1C(F)(F)F [Compound 123, 7-(2-methyl-3-(trifluoromethyl)phenyl)-3-(thiophen-3-ylmethylsulfonyl)-[1,2,4]triazolo[4,3-a]pyrazin-8(7H)-one]
2 | 11 | O=c1c2nnc(S(=O)(=O)Cc3ccccc3Cl)n2ccn1-c1cccc(C(F)(F)F)c1Cl [Compound 119, 7-(2-chloro-3-(trifluoromethyl)phenyl)-3-(2-chlorobenzylsulfonyl)-[1,2,4]triazolo[4,3-a]pyrazin-8(7H)-one]
3 | 925 | Cc1c(Cl)cccc1-n1ccn2c(SCc3cc(F)c(F)c(F)c3)nnc2c1=O [Compound 102, 7-(3-chloro-2-methylphenyl)-3-(3,4,5-trifluorobenzylthio)-[1,2,4]triazolo[4,3-a]pyrazin-8(7H)-one]
4 | 3250 | COC(=O)c1cccc(CSc2nnc3c(=O)n(-c4cccc(Cl)c4C)ccn23)c1 [Compound 91, methyl 3-((7-(3-chloro-2-methylphenyl)-8-oxo-7,8-dihydro-[1,2,4]triazolo[4,3-a]pyrazin-3-ylthio)methyl)benzoate]
5 | 31.8 | [2H]c1c([2H])c([2H])c(C([2H])([2H])S(=O)(=O)c2nnc3c(=O)n(-c4cccc(Cl)c4C)ccn23)c([2H])c1[2H] [Compound 140, deuterated-7-(3-chloro-2-methylphenyl)-3-[(phenyl-(d5)methyl-(d2))sulfonyl]-1,2,4-triazolo[4,3-a]pyrazin-8(7H)-one]
6 | 335 | Cc1c(Cl)cccc1-n1ccn2c(S(=O)(=O)Cc3cc(Cl)cc(Cl)c3)nnc2c1=O [Compound 161, 7-(3-chloro-2-methylphenyl)-3-(3,5-dichlorobenzylsulfonyl)-[1,2,4]triazolo[4,3-a]pyrazin-8(7H)-one]
7 | 38.1 | Cc1c(-n2ccn3c(SCc4ccsc4)nnc3c2=O)cccc1C(F)(F)F [Compound 14, 7-(2-methyl-3-(trifluoromethyl)phenyl)-3-(thiophen-3-ylmethylthio)-[1,2,4]triazolo[4,3-a]pyrazin-8(7H)-one]
8 | 165 | Cc1c(Cl)cccc1-n1ccn2c(SCc3ccccc3C(C)(C)C)nnc2c1=O [Compound 19, 3-(2-tent-butylbenzylthio)-7-(3-chloro-2-methylphenyl)-[1,2,4]triazolo[4,3-a]pyrazin-8(7H)-one]
9 | 37 | Cc1ccc(-c2ccccc2CSc2nnc3c(=O)n(-c4cccc(C(F)(F)F)c4C)ccn23)s1 [Compound 6, 7-(2-methyl-3-(trifluoromethyl)phenyl)-3-(2-(5-methylthiophen-2-yl)benzylthio)-[1,2,4]triazolo[4,3-a]pyrazin-8(7H)-one]
10 | 51 | Cc1cccc(-c2ccccc2CS(=O)(=O)c2nnc3c(=O)n(-c4cccc(C(F)(F)F)c4C)ccn23)c1 [Compound 152]
11 | 1820 | Cc1c(Cl)cccc1-n1ccn2c(SCC(=O)OC(C)(C)C)nnc2c1=O [Compound 107, tert-butyl 2-(7-(3-chloro-2-methylphenyl)-8-oxo-7,8-dihydro-[1,2,4]triazolo[4,3-a]pyrazin-3-ylthio)acetate]
12 | 533 | COc1c(Cl)cccc1-n1ccn2c(SCc3ccccc3)nnc2c1=O [Compound 80, 3-(benzylthio)-7-(3-chloro-2-methoxyphenyl)-[1,2,4]triazolo[4,3-a]pyrazin-8(7H)-one]
13 | 39.5 | [2H]c1c([2H])c([2H])c(CS(=O)(=O)c2nnc3c(=O)n(-c4cccc(Cl)c4C)ccn23)c([2H])c1[2H] [Compound 142, deuterated-7-(3-chloro-2-methylphenyl)-3-[(phenyl-(d5)methyl)sulfonyl]-1,2,4-triazolo[4,3-a]pyrazin-8(7H)-one]
14 | 16.3 | O=c1c2nnc(S(=O)(=O)Cc3ccccc3)n2ccn1-c1cccc(C(F)(F)F)c1Cl [Compound 127, 3-(benzylsulfonyl)-7-(2-chloro-3-(trifluoromethyl)phenyl)-[1,2,4]triazolo[4,3-a]pyrazin-8(7H)-one]
15 | 167 | Cc1c(-n2ccn3c(SCc4ccccc4F)nnc3c2=O)cccc1C(F)(F)F [Compound 56, 3-(2-fluorobenzylthio)-7-(2-methyl-3-(trifluoromethyl)phenyl)-[1,2,4]triazolo[4,3-a]pyrazin-8(7H)-one]
16 | 31.7 | Cc1c(Cl)cccc1-n1ccn2c(S(=O)(=O)Cc3ccccc3)nnc2c1=O [Compound 139, 3-(benzylsulfonyl)-7-(3-chloro-2-methylphenyl)-[1,2,4]triazolo[4,3-a]pyrazin-8(7H)-one]
17 | 1450 | Cc1c(-n2ccn3c(SC(C(=O)c4ccccc4)c4ccccc4)nnc3c2=O)cccc1C(F)(F)F (centres unmarked) [Compound 22, 7-(2-methyl-3-(trifluoromethyl)phenyl)-3-(2-oxo-1,2-diphenylethylthio)-[1,2,4]triazolo[4,3-a]pyrazin-8(7H)-one]
18 | 475 | Cc1c(Cl)cccc1-n1ccn2c(SCc3c(F)cccc3C(F)(F)F)nnc2c1=O [Compound 68, 7-(3-chloro-2-methylphenyl)-3-(2-fluoro-6-(trifluoromethyl)benzylthio)-[1,2,4]triazolo[4,3-a]pyrazin-8(7H)-one]
19 | 4220 | Cc1c(Cl)cccc1-n1ccn2c(SCc3cccnc3)nnc2c1=O [Compound 96, 7-(3-chloro-2-methylphenyl)-3-(pyridin-3-ylmethylthio)-[1,2,4]triazolo[4,3-a]pyrazin-8(7H)-one]
20 | 543 | Cc1onc(-c2ccccc2)c1CSc1nnc2c(=O)n(-c3cccc(C(F)(F)F)c3C)ccn12 [Compound 17, 7-(2-methyl-3-(trifluoromethyl)phenyl)-3-((5-methyl-3-phenylisoxazo1-4-yl)methylthio)-[1,2,4]triazolo[4,3-a]pyrazin-8(7H)-one]
21 | 994 | Cc1c(Cl)cccc1-n1ccn2c(SCc3ccccc3[N+](=O)[O-])nnc2c1=O [Compound 53, 7-(3-chloro-2-methylphenyl)-3-(2-nitrobenzylthio)-[1,2,4]triazolo[4,3-a]pyrazin-8(7H)-one]
22 | 148 | Cc1c(-n2ccn3c(SCc4ccccc4Cl)nnc3c2=O)cccc1C(F)(F)F [Compound 28, 3-(2-chlorobenzylthio)-7-(2-methyl-3-(trifluoromethyl)phenyl)-[1,2,4]triazolo[4,3-a]pyrazin-8(7H)-one]
23 | 457 | O=c1c2nnc(SCc3ccccc3)n2ccn1-c1cccc(C(F)(F)F)c1F [Compound 59, 3-(benzylthio)-7-(2-fluoro-3-(trifluoromethyl)phenyl)-[1,2,4]triazolo[4,3-a]pyrazin-8(7H)-one]
24 | 372 | Cc1c(Cl)cccc1-n1ccn2c(SCc3ccccc3C(C)C)nnc2c1=O [Compound 41, 7-(3-chloro-2-methylphenyl)-3-(2-isopropylbenzylthio)-[1,2,4]triazolo[4,3-a]pyrazin-8(7H)-one]
25 | 86.4 | Cc1ccccc1CSc1nnc2c(=O)n(-c3cccc(C(F)(F)F)c3C)ccn12 [Compound 57, 7-(2-methyl-3-(trifluoromethyl)phenyl)-3-(2-methylbenzylthio)-[1,2,4]triazolo[4,3-a]pyrazin-8(7H)-one]
26 | 229 | Cc1c(Cl)cccc1-n1ccn2c(N(Cc3ccccc3)CC3CC3)nnc2c1=O [Compound 171, 3-(benzyl(cyclopropylmethyl)amino)-7-(3-chloro-2-methylphenyl)-[1,2,4]triazolo[4,3 - a]pyrazin-8(7H)-one]
